Data taken from ChEMBL document CHEMBL1201862, “PubChem BioAssay data set” (2004).
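Five compound concentrations were applied to cells in 96-well plates for 48 hours; endpoints were derived by simple linear interpolation of the resulting dose-response curve. Abbreviation: GI50, concentration required for 50% inhibition of growth.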 Activity calls are given as the source filed them. Rule as the data show it: active = GI50 up to about 1.1 µM and inactive = higher.

Experiments:
Assay in all cases: inhibition of tumour cell growth, NCI panel, 48 h
MDA-MB-435 = system: MDA-MB-435
PC-3 = system: PC-3
DU-145 = system: DU-145
NCI-H460 = system: NCI-H460
SK-MEL-5 = system: SK-MEL-5
MDA-MB-231 = system: MDA-MB-231
M14 = system: M14
MDA-N = system: MDA-N
BT-549 = system: BT-549
NCI-H522 = system: NCI-H522
HOP-62 = system: HOP-62
MCF7 = system: MCF7
NCI/ADR-RES = system: NCI/ADR-RES
U-251 = system: U-251
RXF 393 = system: RXF 393
T47D = system: T47D
TK-10 = system: TK-10
OVCAR-8 = system: OVCAR-8
Hs-578T = system: Hs-578T

| SMILES | GI50 (MDA-MB-435) | GI50 (PC-3) | GI50 (DU-145) | GI50 (NCI-H460) | GI50 (SK-MEL-5) | GI50 (MDA-MB-231) | GI50 (M14) | GI50 (MDA-N) | GI50 (BT-549) | GI50 (NCI-H522) | GI50 (HOP-62) | GI50 (MCF7) | GI50 (NCI/ADR-RES) | GI50 (U-251) | GI50 (RXF 393) | GI50 (T47D) | GI50 (TK-10) | GI50 (OVCAR-8) | GI50 (Hs-578T) |
| --- | --- | --- | --- | --- | --- | --- | --- | --- | --- | --- | --- | --- | --- | --- | --- | --- | --- | --- | --- |
| O=C1Nc2ccccc2[C@]12C[C@H]2c1ccccn1 | > 100 µM (inactive) | > 100 µM (inactive) | > 100 µM (inactive) | > 100 µM (inactive) | > 100 µM (inactive) | > 100 µM (inactive) | > 100 µM (inactive) | > 100 µM (inactive) | > 100 µM (inactive) | > 100 µM (inactive) | > 100 µM (inactive) | > 100 µM (inactive) | > 100 µM (inactive) | > 100 µM (inactive) | > 100 µM (inactive) | > 100 µM (inactive) | > 100 µM (inactive) |  |  |
| CCCCNC(=S)Nc1nc(C(=O)NNC(=S)NC2CCCCC2)cs1 | > 100 µM (inactive) | > 100 µM (inactive) | > 100 µM (inactive) |  | 67.6 µM (inactive) | > 100 µM (inactive) | > 100 µM (inactive) | > 100 µM (inactive) | > 100 µM (inactive) | > 100 µM (inactive) | > 100 µM (inactive) | > 100 µM (inactive) | 74.3 µM (inactive) | 91.4 µM (inactive) |  | > 100 µM (inactive) | > 100 µM (inactive) | 69.3 µM (inactive) |  |
| CC1=C[C@@H]2[C@@H](CC(CO)=C[C@H]3[C@@H]4C(C)(C)[C@]4(OCC(C)C)[C@H](OCC(C)C)[C@@H](C)[C@]23O)C1=O | 0.426 µM (active) | 1.49 µM (inactive) | 3.2 µM (inactive) | 0.465 µM (active) | 1.11 µM (active) | 1.39 µM (inactive) | 1.51 µM (inactive) | 0.649 µM (active) | 1.14 µM (inactive) | 2.2 µM (inactive) | 0.206 µM (active) | 2.56 µM (inactive) | 2.55 µM (inactive) | 1.5 µM (inactive) | 1.54 µM (inactive) | 2.16 µM (inactive) | 1.82 µM (inactive) | 1.73 µM (inactive) | 0.9 µM (active) |
| O=S(=O)(N=S(c1ccccc1)c1ccccc1)c1ccccc1 | > 100 µM (inactive) | > 100 µM (inactive) | > 100 µM (inactive) | > 100 µM (inactive) |  |  | > 100 µM (inactive) |  | > 100 µM (inactive) |  | > 100 µM (inactive) | > 100 µM (inactive) | > 100 µM (inactive) | > 100 µM (inactive) | > 100 µM (inactive) | > 100 µM (inactive) | > 100 µM (inactive) | > 100 µM (inactive) |  |
| CC(=O)C1=C(C)NC(=C(C#N)C#N)C(C#N)=C1 | > 100 µM (inactive) | > 100 µM (inactive) | > 100 µM (inactive) | > 100 µM (inactive) | > 100 µM (inactive) | > 100 µM (inactive) | > 100 µM (inactive) | > 100 µM (inactive) |  | > 100 µM (inactive) | > 100 µM (inactive) | > 100 µM (inactive) | > 100 µM (inactive) | > 100 µM (inactive) | > 100 µM (inactive) | > 100 µM (inactive) |  | > 100 µM (inactive) | > 100 µM (inactive) |
| COc1ccc2nc(-c3ccc(N)cc3)sc2c1 | > 100 µM (inactive) | 48 µM (inactive) |  | 54 µM (inactive) | 61.4 µM (inactive) | 81.8 µM (inactive) | > 100 µM (inactive) |  | > 100 µM (inactive) | 23.6 µM (inactive) | 42.2 µM (inactive) | > 100 µM (inactive) | > 100 µM (inactive) | 35.6 µM (inactive) | > 100 µM (inactive) |  | > 100 µM (inactive) | 52.5 µM (inactive) | 34.6 µM (inactive) |
| [O-][N+]1=C2CCC/C(=N/O)C2(O)C2CCCCC21N1CCOCC1 (stereo not given) | > 100 µM (inactive) | > 100 µM (inactive) |  | > 100 µM (inactive) | > 100 µM (inactive) | > 100 µM (inactive) | > 100 µM (inactive) | > 100 µM (inactive) | > 100 µM (inactive) | > 100 µM (inactive) | > 100 µM (inactive) | > 100 µM (inactive) | > 100 µM (inactive) | > 100 µM (inactive) | 8.02 µM (inactive) | > 100 µM (inactive) | > 100 µM (inactive) | > 100 µM (inactive) | > 100 µM (inactive) |
| Nc1ncnc2c1cnn2Cc1ccc(Cl)cc1 | > 100 µM (inactive) | > 100 µM (inactive) | > 100 µM (inactive) | > 100 µM (inactive) | > 100 µM (inactive) | > 100 µM (inactive) | > 100 µM (inactive) | > 100 µM (inactive) |  | 92 µM (inactive) |  | > 100 µM (inactive) | 83 µM (inactive) | > 100 µM (inactive) | > 100 µM (inactive) | > 100 µM (inactive) | > 100 µM (inactive) | > 100 µM (inactive) | > 100 µM (inactive) |
| COC(=O)C(=O)c1c2ccccc2n2ccc3c4ccccc4[nH]c3c12 | > 10 µM (inactive) | > 10 µM (inactive) | > 10 µM (inactive) | > 10 µM (inactive) | > 10 µM (inactive) | 9.18 µM (inactive) | > 10 µM (inactive) | > 10 µM (inactive) | > 10 µM (inactive) | > 10 µM (inactive) | > 10 µM (inactive) | > 10 µM (inactive) | > 10 µM (inactive) | > 10 µM (inactive) | > 10 µM (inactive) | > 10 µM (inactive) | > 10 µM (inactive) | > 10 µM (inactive) | 3.07 µM (inactive) |
| NC(CCCCO)C(=O)O (stereo not given) | > 100 µM (inactive) | > 100 µM (inactive) | > 100 µM (inactive) | > 100 µM (inactive) | > 100 µM (inactive) | > 100 µM (inactive) | > 100 µM (inactive) |  | > 100 µM (inactive) | > 100 µM (inactive) | > 100 µM (inactive) | > 100 µM (inactive) | > 100 µM (inactive) | > 100 µM (inactive) | > 100 µM (inactive) | > 100 µM (inactive) | > 100 µM (inactive) | > 100 µM (inactive) | > 100 µM (inactive) |
| COC(=O)CCC(=O)c1ccc2c(c1)CCC2 | > 100 µM (inactive) | > 100 µM (inactive) | > 100 µM (inactive) | > 100 µM (inactive) | > 100 µM (inactive) | > 100 µM (inactive) | > 100 µM (inactive) | > 100 µM (inactive) |  | > 100 µM (inactive) | > 100 µM (inactive) | > 100 µM (inactive) | > 100 µM (inactive) | > 100 µM (inactive) | > 100 µM (inactive) | > 100 µM (inactive) | > 100 µM (inactive) | > 100 µM (inactive) | > 100 µM (inactive) |
| CC1CCC2(NC1)OC1CC3C4CC=C5CC(OC6OC(CO)C(OC7OC(C)C(O)C(O)C7O)C(O)C6OC6OC(C)C(O)C(O)C6O)CCC5(C)C4CCC3(C)C1C2C (stereo not given) | 2.04 µM (inactive) | 2.09 µM (inactive) | 4 µM (inactive) | 3.55 µM (inactive) | 5.58 µM (inactive) | 3.78 µM (inactive) | 2.39 µM (inactive) | 2.37 µM (inactive) | 15.6 µM (inactive) | 1.7 µM (inactive) | 4.09 µM (inactive) | 2.32 µM (inactive) |  | 2.84 µM (inactive) | 4.05 µM (inactive) | 7.64 µM (inactive) | 5.31 µM (inactive) | 2.88 µM (inactive) | 3.87 µM (inactive) |
| CCCc1c2c3ccccc3nc-2nc2ccccn12 | 94.4 µM (inactive) | 64.6 µM (inactive) | > 100 µM (inactive) | 32.8 µM (inactive) | > 100 µM (inactive) | 72.1 µM (inactive) | 26.7 µM (inactive) | 74.5 µM (inactive) | > 100 µM (inactive) | > 100 µM (inactive) | 25.4 µM (inactive) |  | > 100 µM (inactive) | 63.7 µM (inactive) |  | > 100 µM (inactive) | 52.7 µM (inactive) | 71.8 µM (inactive) | > 100 µM (inactive) |
| CCOC(=O)N1c2ccccc2C(C)=CC(C)C1C (stereo not given) | 3.37 µM (inactive) | 55.8 µM (inactive) | 38.3 µM (inactive) | 21.4 µM (inactive) | 12.5 µM (inactive) | 22.9 µM (inactive) | 13.6 µM (inactive) | 1.32 µM (inactive) |  | 18.7 µM (inactive) | 37.6 µM (inactive) | 10.3 µM (inactive) | 25.8 µM (inactive) |  | 11.3 µM (inactive) | 52.1 µM (inactive) | 4.55 µM (inactive) | 17.6 µM (inactive) | 35.6 µM (inactive) |
| O=C1CCC2=C(CCC2)N1CCc1ccc2c(c1)OCO2 |  | 32.5 µM (inactive) | > 100 µM (inactive) | 48.2 µM (inactive) | 24.5 µM (inactive) | > 100 µM (inactive) | 92.9 µM (inactive) | > 100 µM (inactive) | 20.8 µM (inactive) | 61.1 µM (inactive) | 94.6 µM (inactive) | 60 µM (inactive) | 43 µM (inactive) | 45.7 µM (inactive) | 1.21 µM (inactive) | 37 µM (inactive) | 76.9 µM (inactive) | > 10 µM (inactive) | 49 µM (inactive) |
| O=[N+]([O-])/C(C(Cl)=C(Cl)Cl)=C1\NCCS1 | 35.8 µM (inactive) | 35.6 µM (inactive) | > 100 µM (inactive) | 83.9 µM (inactive) | > 100 µM (inactive) | 38.8 µM (inactive) | 46.9 µM (inactive) |  | 70 µM (inactive) |  | > 100 µM (inactive) | 36 µM (inactive) | 30.2 µM (inactive) | 45.8 µM (inactive) | 27.9 µM (inactive) |  | > 100 µM (inactive) | 47.2 µM (inactive) | 27.4 µM (inactive) |
